Earlier results on three substances are cited in paper PMC2948132 (The Open Cardiovascular Medicine Journal, 2010).

The test system of data set [1] is classical or alternative C3 convertase. The conditions noted are these: ref [19]-[22].
The test system of data set [2] is primate-derived complement. The conditions noted are these: reference not given.
Data set [3] relates to complement-mediated ischemia/reperfusion injury.

Turning to Compstatin, the “C3 convertase inhibition, in words” value in data set [1] is listed as “known to inhibit classical or alternative C3 convertase by preventing C3 cleavage”. Besides, in data set [2], the “species specificity of complement inhibition, in words” value is “only inhibits primate-derived complement”.
In the case of “TP20: soluble CR1 decorated with fucosylated tetrasaccharide sialyl Lewisx”, in data set [3] (ref [11],[14],[49],[50]), the “efficacy in animal models of transplantation and IR injury, in words” value is on record as “effective”.
sCR1: Soluble complement receptor1: the “protection against IRI, in words” value in data set [3] (ref [45],[46]) is “successful in offering protection against IRI”.
